One assay relates to myostatin promoter. Kind of assay: Myostatin promoter activity, dual luciferase assay in C2C12 cells transfected with pGL4.15-MSTN. The class given is cell-based, mouse. Particulars: for myostatin promoter activity reduced by: 1 mM, C2C12 cells, medium without L-leucine, after one day; for promoter activity of myostatin: C2C12, medium without L-leucine. The protocol: After seeding 1×10^5 cells of mouse skeletal muscle cells C2C12 (ATCC, US) in a 12-well culture plate, on the next day, pGL4.15 empty vector and pGL4.15-MSTN vector containing myostatin promoter were transfected using Lipofectamine 2000 for 4 hours. After 4 hours, the complete medium (0.8 mM L-leucine) and the medium without L-leucine were treated with D-leucine or DL-leucine at concentrations of 0.001 mM, 0.01 mM, 0.1 mM, and 1 mM, respectively. After one day, a dual luciferase assay kit (Promega Inc.) was used to measure the promoter activity of myostatin.
In the same manner as the experiment to examine the inhibitory effect of a myostatin promoter activity by D-leucine or DL-leucine, D-alanine was treated at concentrations of 0.01 mM, 0.1 mM, 1 mM, and 10 mM in a medium without L-leucine, and a dual luciferase assay kit (Promega Inc.) was used to measure the promoter activity of myostatin.
In the same manner as in the experiment to examine the inhibitory effect of a myostatin promoter activity by D-leucine or DL-leucine, and D-alanine, D-proline was treated at concentrations of 0.001 mM, 0.01 mM, 0.1 mM, and 1 mM in a medium without L-leucine, and a dual luciferase assay kit (Promega Inc.) was used to measure the promoter activity of myostatin.
In the same manner as the myostatin promoter activity experimental method performed in Example 1 above, D-phenylalanine (0.001-0.1 mM), D-serine (0.001-0.1 mM), D-tyrosine (0.0001-0.01 mM), D-asparagine monohydrate (0.001-0.1 mM), D-aspartic acid (0.0001-0.01 mM), D-methionine (0.001-0.1 mM), D-cysteine hydrochloride monohydrate (0.001-0.1 mM), D-glutamic acid (0.0001-0.01 mM), D-arginine (0.001-0.1 mM), and D-tryptophan (0.001-0.1 mM) were treated, respectively. The myostatin mRNA expression level was identified using qRT-PCR, and the myostatin mRNA expression value was corrected using the expression value of beta-actin.

For another assay, the system named is myostatin mRNA. Kind of assay: Myostatin mRNA expression by qRT-PCR in C2C12 cells, corrected with beta-actin. The class given is cell-based, mouse. Particulars: C2C12, medium without L-leucine. How it is done:
After seeding mouse skeletal muscle cells C2C12 (ATCC, US) 3×10^5 cells in a 6-well culture plate, on the next day, D-leucine was treated at concentrations of 0.01 mM, 0.1 mM, and 1 mM in a complete medium (0.8 mM L-leucine) and a medium without L-leucine. […]
On the technique in general: Quantitative PCR measures a nucleic acid by following its amplification.

The source of these data is patent US20220331290A1, “PHARMACEUTICAL COMPOSITION FOR PREVENTING OR TREATING SARCOPENIA, CONTAINING UNNATURAL AMINO ACID” (MYO-TEC-SCI, priority 2019, published 2022).

Take `CC(C)CC(N)C(=O)O` (racemic) [DL-leucine]: the “myostatin promoter activity reduced by” value in the assay with myostatin promoter came out at 41%. As for `C[C@@H](N)C(=O)O` [D-alanine], the “promoter activity of myostatin” value with myostatin promoter (D-alanine at 0.01 mM or more (0.01-10 mM tested), 12 hours (FIG. 6)) was “decreased”. Moreover, the “mRNA expression level of myostatin” value in the assay on myostatin mRNA (D-alanine at 0.001 mM or more (0.001-1 mM tested), 12 hours (FIG. 7)) is given as “decreased”. For `CC(C)C[C@@H](N)C(=O)O` [D-leucine], the “myostatin promoter activity reduced by” value with myostatin promoter is recorded as 54%. The “expression of myostatin mRNA” value in the assay on myostatin mRNA (D-leucine 0.01, 0.1 and 1 mM, after one day) was “decreased in a dose-dependent manner”. As for `O=C(O)[C@H]1CCCN1` [D-proline], in the assay with myostatin promoter (D-proline at 0.001 mM or more (0.001-1 mM tested), 24 hours (FIG. 8)), the “promoter activity of myostatin” value was “decreased”. Further, the “mRNA expression level of myostatin” value in the assay with myostatin mRNA (D-proline at 0.1 mM or more (0.1 and 1 mM tested), 24 hours (FIG. 9)) is recorded as “decreased”.
